Laboratory results published in patent publication US8263139B2 (Metaproteonics, LLC, priority 2005, dated 2012).
Marks after values point to notes of the source that are not given here.

Columns and labels:
[1] = system: 3T3-L1 adipocytes; assay: Lipogenesis in 3T3-L1 adipocytes (Oil Red O / BODIPY); format: cell-based, murine
Experimental: Prior to experiments, cells were cultured in DMEM containing 10% FBS-HI added 50 units penicillin/ml and 50 μg streptomycin/ml, and maintained in log phase prior to experimental setup. Cells were grown in a 5% CO2 humidified incubator at 37° C. Components of the pre-confluent medium included (1) 10% FBS/DMEM containing 4.5 g glucose/L; (2) 50 U/ml penicillin; and (3) 50 μg/ml streptomycin. Growth medium was made by adding 50 ml of heat inactivated FBS and 5 ml of penicillin/streptomycin to 500 ml DMEM. This medium was stored at 4° C. Before use, the medium was warmed to 37° C. in a water bath.
3T3-T1 cells were seeded at an initial density of 6×10^4 cells/cm^2 in 24-well plates. For two days, the cells were allowed grow to reach confluence. Following confluence, the cells were forced to differentiate into adipocytes by the addition of differentiation medium; this medium consisted of (1) 10% FBS/DMEM (high glucose); (2) 0.5 mM methylisobutylxanthine; (3) 0.5 μM dexamethasone and (4) 10 μg/ml insulin (MDI medium). After three days, the medium was changed to post-differentiation medium consisting of 10 μg/ml insulin in 10% FBS/DMEM.
Whenever fresh media were added, fresh test material was also added.
Monolayer cells were washed with PBS (phosphate buffered saline, Mediatech) and fixed with 10% formaldehyde for ten minutes. Fixed cells were stained with an Oil Red O working solution of three parts 0.6% Oil Red O/isopropanol stock solution and two parts water for one hour and the excess stain was washed once with water. The resulting stained oil droplets were extracted from the cells with isopropanol and quantified by spectrophotometric analysis at 540 nm (MEL312e BIO-KINETICS READER, Bio-Tek Instruments, Winooski, Vt.).
Briefly, media were removed and cells were washed once with non-sterile PBS. […] After 15 min on an orbital shaker (DS-500, VWR Scientific Products, South Plainfield, N.J.) at ambient temperature, the cells were washed with 100 μl PBS followed by the addition of 100 μl PBS for reading for spectrofluorometric determination of BODIPY incorporation into the cells. […]

[2] = system: 3T3-L1 adipocytes; assay: Adiponectin secretion from TNFα-treated 3T3-L1 adipocytes; format: cell-based, murine; details: for Concentration eliciting maximum adiponectin secretion: of the doses tested
Experimental: 3T3-L1 cells were seeded at an initial density of 1×10^4 cells/cm^2 in 96-well plates. For two days, the cells were allowed grow to reach confluence. Following confluence, the cells were forced to differentiate into adipocytes by the addition of differentiation medium; this medium consisted of (1) 10% FBS/DMEM (high glucose); (2) 0.5 mM methylisobutylxanthine; (3) 0.5 μM dexamethasone and (4) 10 μg/ml insulin (MDI medium). From Day 3 through Day 5, the medium was changed to post-differentiation medium consisting of 10% FBS in DMEM. […] On Day 6, the supernatant medium was sampled for adiponectin determination.
Statistical Calculations and Interpretation—All assays were preformed in duplicate. […] Differences among the doses and test agents were determined using the Student's t-test without correction for multiple comparisons; the nominal five percent probability of a type I error was selected.

[3] = system: 3T3-L1 adipocytes; assay: Adiponectin secretion in LPS/3T3-L1 adipocytes; format: cell-based, murine; details: at the concentration of maximum stimulation; NS = not significantly different from the LPS control
[4] = system: 3T3-L1 adipocytes; assay: IL-6 secretion in LPS/3T3-L1 adipocytes; format: cell-based, murine; details: at the concentration of maximum inhibition, with 100 ng LPS/ml
[5] = Collagen induced rheumatoid arthritis murine model, arthritic index; format: in vivo, mouse; details: 10 mg/kg
Experimental: The mice were injected intradermally on day 0 with a mixture containing 100 μg of type II collagen and 100 μg of Mycobacterium tuberculosis in squalene. A booster injection was repeated on day 21. Mice were examined on days 22-27 for arthritic signs with nonresponding mice removed from the study.
Arthritic symptomology was assessed (scored 0-4) for each paw using a arthritic index as described below. Under this arthritic index 0=no visible signs; 1=edema and/or erythema: single digit; 2=edema and or erythema: two joints; 3=edema and or erythema: more than two joints; and 4=severe arthritis of the entire paw and digits associated with ankylosis and deformity.

Molecule: CC(C)CCC1=C(O)C(C(=O)C(C)C)=C(O)C(CCC(C)C)(CCC(C)C)C1=O [hexahydrocolupulone]
- adipogenic / lipogenic response compared with controls [1]: failed to elicit a lipogenic response

Molecule: COc1ccc2c(c1)c(CC(=O)O)c(C)n2C(=O)c1ccc(Cl)cc1 [indomethacin]
- Concentration eliciting maximum adiponectin secretion ([2]; 2 ng TNFα/ml): 1.25 µg/mL
- Concentration eliciting maximum adiponectin secretion ([2]; 10 ng TNFα/ml): 5.0 µg/mL
- % Stimulation (maximum stimulation of adiponectin secretion) [3]: 9%
- % Inhibition (maximum inhibition of IL-6 secretion) [4]: 53* %

Molecule: CCc1ccc(CCOc2ccc(CC3SC(=O)NC3=O)cc2)nc1 (centres unmarked) [pioglitazone]
- maximal adiponectin secretion, times the TNFα treatment ([2]; 10 ng TNFα/ml): 1.47
- Concentration eliciting maximum adiponectin secretion over four doses ([2]; 10 ng TNFα/ml, Acacia catechu #5669 fractions): 1.25 µg/mL

Molecule: C[C@]12C=CC(=O)C=C1CC[C@@H]1[C@@H]2[C@@H](O)C[C@@]2(C)[C@H]1CC[C@]2(O)C(=O)CO [prednisolone]
- arthritic index [5]: Significant reductions

Molecule: Cc1c(C)c2c(c(C)c1O)CCC(C)(COc1ccc(CC3SC(=O)NC3=O)cc1)O2 (centres unmarked) [troglitazone]
- Concentration eliciting maximum adiponectin secretion ([2]; 10 ng TNFα/ml): 0.625 µg/mL

Molecule: COc1cc(O)c(CC=C(C)C)c(O)c1C(=O)/C=C/c1ccc(O)cc1 [xanthohumol]
- adipogenic / lipogenic response compared with controls [1]: comparable to indomethacin and troglitazone

Molecule: Beta acids
- adipogenic / lipogenic response compared with controls [1]: comparable to indomethacin and troglitazone
